Measured values reported in patent US20190309272A1, “Genetically Modified Cell Lines Including a TP53 Modification and Methods of Use” (UNIVERSITY OF SOUTH CAROLINA, priority 2018, published 2019).
Structures can show the parent of a compound that is named as a salt.

Legend:
Assay type in all cases: cell-based, Human
Conditions in all cases: ten-day drug treatment, 156.25 nM to 10 μM, resazurin fluorescence
MCF7 TP53 KO 5.6 pool = test: Drug screening, resazurin, TP53 KO 5.6 pool
MCF7 WT Parental pool = test: Drug screening, resazurin, MCF7 wild type parental pool
MCF7 TP53 KO 3.4 pool = test: Drug screening, resazurin, TP53 KO 3.4 pool

| SMILES | TP53 KO 5.6 pool (AUC) (MCF7 TP53 KO 5.6 pool) | MCF7 WT Parental pool (AUC) (MCF7 WT Parental pool) | TP53 KO 3.4 pool (AUC) (MCF7 TP53 KO 3.4 pool) |
| --- | --- | --- | --- |
| C[C@]12CC[C@@H]3c4ccc(OC(=O)N(CCCl)CCCl)cc4CC[C@H]3[C@@H]1CC[C@@H]2OP(=O)(O)O [Estramustine Phosphate Sodium] | 9.348 | 9.864 | 9.491 |
| COc1cc([C@@H]2c3cc4c(cc3[C@@H](O[C@@H]3O[C@@H]5CO[C@@H](C)O[C@H]5[C@H](O)[C@H]3O)[C@H]3COC(=O)[C@H]23)OCO4)cc(OC)c1O [Etoposide] | 3.06 | 2.93 | 2.818 |
| CO[C@H]1C[C@@H]2CC[C@@H](C)[C@@](O)(O2)C(=O)C(=O)N2CCCC[C@H]2C(=O)O[C@H]([C@H](C)C[C@@H]2CC[C@@H](OCCO)[C@H](OC)C2)CC(=O)[C@H](C)/C=C(\C)[C@@H](O)[C@@H](OC)C(=O)[C@H](C)C[C@H](C)/C=C/C=C/C=C/1C [Everolimus] | 3.834 | 4.699 | 2.251 |
| O=c1[nH]c(=O)n([C@H]2C[C@H](O)[C@@H](CO)O2)cc1F [Floxuridine] | 1.997 | 2.391 | 1.85 |
| Nc1nc(F)nc2c1ncn2[C@@H]1O[C@H](COP(=O)(O)O)[C@@H](O)[C@@H]1O [FludarabinePhosphate] | 7.936 | 8.551 | 8.135 |
| C[C@]12CC[C@@H]3c4ccc(O)cc4C[C@@H](CCCCCCCCC[S+]([O-])CCCC(F)(F)C(F)(F)F)[C@H]3[C@@H]1CC[C@@H]2O (stereo partly drawn) [Fulvestrant] | 4.145 | 4.6 | 3.797 |
| COc1cc2ncnc(Nc3ccc(F)c(Cl)c3)c2cc1OCCCN1CCOCC1 [Gefintinib] | 8.242 | 8.974 | 7.676 |
| Nc1ccn([C@@H]2O[C@H](CO)[C@@H](O)C2(F)F)c(=O)n1 [Gemcitabine Hydrochloride] | 1.827 | 2.888 | 1.464 |
| NC(=O)NO [Hydroxyurea] | 8.455 | 9.246 | 8.069 |
| C=CC(=O)N1CCC[C@@H](n2nc(-c3ccc(Oc4ccccc4)cc3)c3c(N)ncnc32)C1 [Ibrutinib] | 5.711 | 6.35 | 5.166 |
| CC[C@H](Nc1ncnc2[nH]cnc12)c1nc2cccc(F)c2c(=O)n1-c1ccccc1 [Idelalisib] | 7.03 | 7.566 | 7.039 |
| CC(C)Cn1cnc2c(N)nc3ccccc3c21 [Imiquimod] | 9.449 | 9.496 | 9.359 |
| C/C(=C\c1csc(C)n1)[C@@H]1C[C@@H]2O[C@]2(C)CCC[C@H](C)[C@H](O)[C@@H](C)C(=O)C(C)(C)[C@@H](O)CC(=O)N1 [Ixabepilone] | 1.473 | 1.397 | 1.543 |
| CC(C)C[C@H](NC(=O)CNC(=O)c1cc(Cl)ccc1Cl)B(O)O [Ixazomib] | 0.8766 | 0.719 | 0.7086 |
| CS(=O)(=O)CCNCc1ccc(-c2ccc3ncnc(Nc4ccc(OCc5cccc(F)c5)c(Cl)c4)c3c2)o1 [Laptinib] | 5.857 | 5.364 | 5.619 |
| Nc1cccc2c1CN(C1CCC(=O)NC1=O)C2=O (stereo not drawn) [Lenalidomide] | 8.801 | 8.724 | 8.782 |

| SMILES | TP53 KO 5.6 pool (AUC) (MCF7 TP53 KO 5.6 pool) | MCF7 WT Parental pool (AUC) (MCF7 WT Parental pool) | TP53 KO 3.4 pool (AUC) (MCF7 TP53 KO 3.4 pool) |
| --- | --- | --- | --- |
| O=NN(CCCl)C(=O)NC1CCCCC1 [Lomustine] | 9.491 | 9.62 | 9.629 |
| CC(=O)O[C@]1(C(C)=O)CC[C@H]2[C@@H]3C=C(C)C4=CC(=O)CC[C@]4(C)[C@H]3CC[C@@]21C [Megestrol Acetate] | 9.555 | 9.824 | 9.221 |
| N[C@@H](Cc1ccc(N(CCCl)CCCl)cc1)C(=O)O [Melphalan Hydrochloride] | 5.95 | 5.766 | 6.158 |
| S=c1nc[nH]c2nc[nH]c12 [Mercaptopurine] | 5.636 | 6.103 | 5.941 |
| COc1c2occc2cc2ccc(=O)oc12 [Methoxsalen] | 10.48 | 8.476 | 10.56 |
| CO[C@@]12[C@H](COC(N)=O)C3=C(C(=O)C(C)=C(N)C3=O)N1C[C@@H]1N[C@@H]12 [Mitomycin] | 0.912 | 1.122 | 1.003 |
| Clc1ccc(C(c2ccccc2Cl)C(Cl)Cl)cc1 (stereo not drawn) [Mitotane] | 10.17 | 5.932 | 11.01 |
| COc1nc(N)nc2c1ncn2[C@@H]1O[C@H](CO)[C@@H](O)[C@@H]1O [Nelarabine] | 10.08 | 8.659 | 11.04 |
| Cc1cn(-c2cc(NC(=O)c3ccc(C)c(Nc4nccc(-c5cccnc5)n4)c3)cc(C(F)(F)F)c2)cn1 [Nilotinib] | 4.891 | 5.834 | 6.967 |
| O=C(c1cc(Cc2n[nH]c(=O)c3ccccc23)ccc1F)N1CCN(C(=O)C2CC2)CC1 [Olaparib] | 7.433 | 5.48 | 8.58 |
| COC(=O)C[C@](O)(CCCC(C)(C)O)C(=O)O[C@@H]1C(OC)=C[C@]23CCCN2CCc2cc4c(cc2[C@H]13)OCO4 [Omacetaxine Mepesuccinate] | 0.7717 | 0.7749 | 0.7692 |
| C=CC(=O)Nc1cc(Nc2nccc(-c3cn(C)c4ccccc34)n2)c(OC)cc1N(C)CCN(C)C [Osimertinib] | 4.044 | 4.149 | 4.056 |
| CC(=O)O[C@H]1C(=O)[C@@]2(C)[C@H]([C@H](OC(=O)c3ccccc3)[C@]3(O)C[C@H](OC(=O)[C@H](O)[C@@H](NC(=O)c4ccccc4)c4ccccc4)C(C)=C1C3(C)C)[C@]1(OC(C)=O)CO[C@@H]1C[C@@H]2O [Paclitaxel] | 1.432 | 1.453 | 1.453 |
| Cc1[nH]c2ccccc2c1CCNCc1ccc(/C=C/C(=O)NO)cc1 [Panobinostat] | 0.5971 | 0.6418 | 0.5862 |
| Cc1ccc(Nc2nccc(N(C)c3ccc4c(C)n(C)nc4c3)n2)cc1S(N)(=O)=O [Pazopanib Hydrochloride] | 6.349 | 6.767 | 6.259 |
| Nc1nc2[nH]cc(CCc3ccc(C(=O)N[C@@H](CCC(=O)O)C(=O)O)cc3)c2c(=O)[nH]1 [Pemetrexed Disodium Salt Heptahydrate] | 2.852 | 2.501 | 2.438 |
